These results are taken from ChEMBL document CHEMBL1128235, “Inhibitors of HIV-1 protease containing the novel and potent (R)-(hydroxyethyl)sulfonamide isostere” (J Med Chem, 1995).

Series [1] concerns CCRF-CEM. Kind of series: Antiviral activity against HIVIIIB strain of HIV-1 was determined in an CEM based assay. It is filed as functional, cell-based. Particulars: Homo sapiens.
The target of series [2] is T1, Human immunodeficiency virus type 1 protease (Human immunodeficiency virus 1, UniProt Q72874). Kind of series: Binding affinity for HIV-1 protease was determined in vitro.
For series [3], the target named is T1, Human immunodeficiency virus type 1 protease. Kind of series: Binding affinity for HIV-1 protease was determined.
For series [4] the target is unchanged. Description: Ability to inhibit HIV-1 protease was determined using spectrofluorimetric assay.
Series [5] has the same target. Description: Ability to inhibit HIV-1 protease was determined using spectrofluorimetric assay.
For series [6] the target is unchanged. Kind of series: Binding affinity for HIV-1 protease was determined.
Series [7] can be described thus: Toxicity in CEM cells infected with HIVIIIB strain of HIV-1. It is filed as cell-based. As to conditions: human, CEM (CCRF-CEM) cells infected with HIV-1 strain IIIB; read-out: TD50 (the source's name).
In series [8] the test system is CCRF-CEM. Description: Antiviral activity against HIVIIIB strain of HIV-1 was determined in an CEM based assay. Particulars: Homo sapiens. It is filed as functional, cell-based.
Series [9] concerns the target T1, Human immunodeficiency virus type 1 protease. Kind of series: Binding affinity for HIV-1 protease was determined in vitro.

Turning to `CC(C)CN(C[C@@H](O)[C@H](Cc1ccccc1)NC(=O)OCc1ccccc1)S(=O)(=O)c1ccccc1`, the EC50 (usually the midpoint of the concentration-response curve) in the series with CCRF-CEM [1] is 113 nM. In [2], the Ki (commonly the equilibrium dissociation constant of an inhibitor or competing ligand from its target) was 3.2 nM.
The molecule `O=C(N[C@@H](Cc1ccccc1)[C@H](O)CN(Cc1ccccc1)S(=O)(=O)c1ccccc1)OCc1ccccc1` came in with an inhibition constant (Ki) in [3] of 125 nM. Also, the IC50 (as a rule, the concentration needed to halve the response being measured) in series [4] is 190 nM.
Consider `CC(C)CCN(C[C@@H](O)[C@H](Cc1ccccc1)NC(=O)[C@H](CC(N)=O)NC(=O)OCc1ccccc1)S(C)(=O)=O`, for which affinity in series [3] was put at a Ki of 57 nM. This molecule yielded an IC50 in series [4] of 100 nM.
On to `CC(C)CCN(C[C@@H](O)[C@H](Cc1ccccc1)NC(=O)OCc1ccccc1)S(=O)(=O)c1ccccc1Cl`, for which, in [5], the IC50 was determined as 380 nM. This molecule came in with a Ki in series [6] of 227 nM.
`CC(C)CCN(C[C@H](O)[C@H](Cc1ccccc1)NC(=O)OCc1ccccc1)S(=O)(=O)c1ccccc1`: it took 450 nM to reach half-maximal inhibition in series [5] (IC50). The molecule further showed a Ki in series [6] of 295 nM.
The molecule `CC(C)CCN(C[C@@H](O)[C@H](Cc1ccccc1)NC(=O)OCc1ccccc1)S(C)(=O)=O` returned a Ki in series [3] of 1870 nM. The molecule also returned an IC50 in series [4] of 3200 nM.
Take `CC(C)CCN(C[C@@H](O)[C@H](Cc1ccccc1)NC(=O)[C@H](CC(N)=O)NC(=O)c1ccc2ccccc2n1)S(C)(=O)=O`: in series [7], the CC50 amounted to 45 µM. This molecule gave a 50% effective concentration (EC50) with CCRF-CEM [1] of 53 nM. Besides, in [2], the Ki came out at 13 nM.
For the molecule `CCCS(=O)(=O)N(CCC(C)C)C[C@@H](O)[C@H](Cc1ccccc1)NC(=O)OCc1ccccc1`, in series [5], the IC50 came to 210 nM. For the same molecule, in series [6], the inhibition constant (Ki) came out at 128 nM.
Regarding `CC(C)CCN(C[C@@H](O)[C@H](Cc1ccccc1)NC(=O)OCc1ccccc1)S(=O)(=O)Cc1ccccc1`, the IC50 in series [5] amounted to 10000 nM.
In the case of `CC(C)CCN(C[C@@H](O)[C@H](Cc1ccccc1)NC(=O)OCc1ccccc1)S(=O)(=O)c1cccc(Cl)c1`, in [5], the IC50 amounted to 92 nM. In addition, the affinity in [6], expressed as Ki, was 61 nM.
For the molecule `CC(C)CCN(C[C@@H](O)[C@H](Cc1ccccc1)NC(=O)OCc1ccccc1)S(=O)(=O)c1ccccc1`, the CC50 in series [7] was found to be 26 µM. The molecule further showed an EC50 in the series with CCRF-CEM [8] of 55 nM. In [9], this molecule gave an inhibition constant Ki of 10 nM.
For the molecule `CC(C)CCN(C[C@@H](O)[C@H](Cc1ccccc1)NC(=O)OCc1ccccc1)S(=O)(=O)c1ccc(Cl)cc1`, the IC50 in series [5] stood at 10 nM. For the same molecule, the Ki in series [6] stood at 4.1 nM.
The molecule `O=C(N[C@@H](Cc1ccccc1)[C@H](O)CN(CC1CCCCC1)S(=O)(=O)c1ccccc1)OCc1ccccc1` returned a Ki in [3] of 6.7 nM. Also, the IC50 in series [4] amounted to 14 nM.
On to `CC(C)CCN(C[C@@H](O)[C@H](Cc1ccccc1)NC(=O)[C@H](CC(N)=O)NC(=O)c1ccc2ccccc2n1)S(=O)(=O)c1ccccc1`, for which the CC50 in [7] was determined as 203 µM. Moreover, the EC50 in the series on CCRF-CEM [1] is 5 nM.
In the case of `CC(C)CCN(C[C@@H](O)[C@H](Cc1ccccc1)NC(=O)[C@H](CC(N)=O)NC(=O)OCc1ccccn1)S(=O)(=O)c1ccccc1`, in series [3], affinity was put at a Ki of 0.5 nM. The molecule also yielded an IC50 in series [4] of 2.2 nM.
